Data as given in patent US5310757A, “3,3,5-trimethylcyclohexyl 2-methylpropionate derivatives, their method of preparation and therapeutic compositions in which they are present” (Panmedica, priority 1989, dated 1994).

Columns and labels:
[1] = target: T1, 3-hydroxy-3-methylglutaryl-CoA reductase (Rattus norvegicus, UniProt P51639); assay: inhibition of 3-hydroxy-3-methylglutaryl-CoA reductase activity (method of Kuroda et al.); format: biochemical; conditions: concentration for 50% inhibition of 3-hydroxy-3-methylglutaryl-CoA reductase activity
T1 construct: from tissue
T1 sequence (P51639 1-887): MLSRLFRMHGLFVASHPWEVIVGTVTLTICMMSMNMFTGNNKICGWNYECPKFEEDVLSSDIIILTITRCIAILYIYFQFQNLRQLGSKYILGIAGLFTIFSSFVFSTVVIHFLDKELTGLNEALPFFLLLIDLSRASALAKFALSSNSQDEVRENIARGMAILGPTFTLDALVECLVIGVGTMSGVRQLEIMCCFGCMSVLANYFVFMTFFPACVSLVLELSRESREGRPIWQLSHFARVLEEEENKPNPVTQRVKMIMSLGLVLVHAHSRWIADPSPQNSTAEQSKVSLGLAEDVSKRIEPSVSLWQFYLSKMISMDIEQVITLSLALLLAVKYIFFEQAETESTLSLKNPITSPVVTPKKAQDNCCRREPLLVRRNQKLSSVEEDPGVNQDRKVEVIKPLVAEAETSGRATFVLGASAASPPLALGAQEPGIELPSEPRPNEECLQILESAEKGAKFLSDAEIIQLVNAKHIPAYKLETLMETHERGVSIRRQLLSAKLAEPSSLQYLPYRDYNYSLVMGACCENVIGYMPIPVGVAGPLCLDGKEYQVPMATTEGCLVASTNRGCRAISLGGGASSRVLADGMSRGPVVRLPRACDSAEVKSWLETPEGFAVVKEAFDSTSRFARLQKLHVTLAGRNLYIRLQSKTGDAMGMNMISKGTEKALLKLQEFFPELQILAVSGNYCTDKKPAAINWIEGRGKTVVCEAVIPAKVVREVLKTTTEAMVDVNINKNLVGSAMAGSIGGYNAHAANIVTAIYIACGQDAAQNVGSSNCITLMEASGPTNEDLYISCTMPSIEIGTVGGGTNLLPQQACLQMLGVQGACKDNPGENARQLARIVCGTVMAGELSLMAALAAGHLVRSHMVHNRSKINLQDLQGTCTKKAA
Experimental: The biosynthesis of cholesterol in an isolated enzymatic system or in a cell culture from organs removed from experimental animals is inhibited by limiting the activity of the enzyme 3-hydroxy-3-methylglutaryl-CoA reductase.
The inhibitory activity of the products according to the present invention was determined by the method of Kuroda et al. (Biochemica et Biophysica Acta, vol. 486, pp. 70-81 (1977)), which is a modification of the method of Shapiro et al. (Analytical Biochemistry, vol. 31, pp. 383-390 (1969)). The results are summarized in Table II, where IC50 is the concentration of product in the experimental medium which is necessary to achieve a 50% inhibition of the 3-hydroxy-3-methylglutaryl-CoA reductase activity, expressed in nanomol.

[2] = tested on: hyperlipidaemia caused by TRITON 1339; assay: test for the hyperlipidaemia caused by TRITON 1339; format: in vivo; conditions: rats, Triton test after oral administration for six days, 0.5 millimol per kilogram; for HDL cholesterol: Control 0.7 ± 0.1, Triton 0.8 ± 0.1; for Triglycerides: Control 1 ± 0.3, Triton 10 ± 7; for Total cholesterol: Control 2 ± 0.15, Triton 9 ± 3; for Total lipids: Control 3.5 ± 0.4, Triton 20 ± 10
Experimental: The Table below summarizes the results of the pharmacological studies carried out especially by means of the test for the hyperlipidaemia caused by TRITON 1339. The experimental protocol was that published by J. C. […] et al. (Gaz. Med. France, 3rd inter. coll. 1982, Dijon, 18-22). The tests are performed on groups of 7 rats weighing from 280 to 290 g. The Triton test is carried out after oral administration for six days at a rate of 0.5 millimol per kilogram of body weight. The following lipid parameters are measured: total cholesterol, triglycerides, total lipids and HDL cholesterol.

HMG-CoA red. = HMG-CoA red. activity "ex vivo" in liver microsomes after chronic intraperitoneal administration to rats; set-up: Mevalonate formed: unit not given here; conditions: 50 mg/kg for 6 days; for Mevalonate formed: Control 17; for % inhibition: inhibition of HMG-CoA red. activity, Control 0
Experimental: The inhibitory activity of the products according to the present invention was determined by the method of Kuroda et al. (Biochemica et Biophysica Acta, vol. 486, pp. 70-81 (1977)), which is a modification of the method of Shapiro et al. (Analytical Biochemistry, vol. 31, pp. 383-390 (1969)). […] The doses administered were 50 mg/kg for 6 days; six rats were used in each series; they are sacrificed without anaesthesia and the liver microsomes are isolated for the assay, which is performed according to the above-mentioned protocol.

| IC50 [1] [nM] | Compound | HDL cholesterol [2] [mmol/L] | Triglycerides [2] [mmol/L] | Total cholesterol [2] [mmol/L] | Total lipids [2] [g/L] | Mevalonate formed (HMG-CoA red.) | % inhibition (HMG-CoA red.) [%] |
| --- | --- | --- | --- | --- | --- | --- | --- |
| 21.9 | CC(=O)c1ccc(OC(C)(C)C(=O)O[C@H]2C[C@@H](C)CC(C)(C)C2)c(Cl)c1 (relative stereo) [Example 12, (CIS) 3,3,5-TRIMETHYLCYCLOHEXYL 2-(4-ACETYL-2-CHLOROPHENOXY)-2-METHYLPROPIONATE] | – | – | – | – | – | – |
| – | Cc1ccc(C)c(OCCCC(C)(C)C(=O)O[C@H]2C[C@H](C)CC(C)(C)C2)c1 (relative stereo) [Example 6, (TRANS) 3,3,5-TRIMETHYLCYCLOHEXYL 2-(3-(2,5-DIMETHYLPHENOXY)PROPYL)-2-METHYLPROPIONATE] | 0.9 ± 0.3 | 1.7 ± 0.3 | 2.0 ± 0.2 | 8.0 ± 3 | 6.01 | 65 |
| 35.7 | CC(=O)c1cccc(OC(C)(C)C(=O)O[C@H]2C[C@H](C)CC(C)(C)C2)c1 (relative stereo) [Example 13, (TRANS) 3,3,5-TRIMETHYLCYCLOHEXYL 2-(3-ACETYLPHENOXY)-2-METHYLPROPIONATE] | – | – | – | – | – | – |
| – | C[C@@H]1C[C@H](OC(=O)C(C)(C)Oc2ccc(-c3ccccc3)cc2)CC(C)(C)C1 (relative stereo) [Example 8, (CIS) 3,3,5-TRIMETHYLCYCLOHEXYL 2-(4-PHENYLPHENOXY)-2-METHYLPROPIONATE] | 1.1 ± 0.2 | 6.0 ± 4 | 3.0 ± 0.2 | 3.6 ± 0.2 | – | – |
| – | C[C@H]1C[C@H](OC(=O)C(C)(C)Oc2ccc(C(=O)c3ccc(Cl)cc3)cc2)CC(C)(C)C1 (relative stereo) [Example 1, (TRANS) 3,3,5-TRIMETHYLCYCLOHEXYL 2-(4-(4-CHLOROBENZOYL)PHENOXY)-2-METHYLPROPIONATE] | 1.5 ± 0.4 | 0.8 ± 0.1 | 3.5 ± 1.4 | 3.6 ± 0.5 | 4.44 | 74 |
| – | CC(C)OC(=O)C(C)(C)Oc1ccc(C(=O)c2ccc(Cl)cc2)cc1 [Fenofibrate, isopropyl 4-(4-chlorobenzoyl)phenoxyisobutyrate, reference compound] | – | – | – | – | 4.16 | – |
| 32.9 | C[C@@H]1C[C@H](OC(=O)C(C)(C)Oc2ccc(C(=O)Cc3ccccc3)cc2)CC(C)(C)C1 (relative stereo) [Example 18, (CIS) 3,3,5-TRIMETHYLCYCLOHEXYL 2-(4-PHENYLACETYLPHENOXY)-2-METHYLPROPIONATE] | – | – | – | – | – | – |
| 37.6 | CCC(=O)c1ccc(OC(C)(C)C(=O)O[C@H]2C[C@@H](C)CC(C)(C)C2)cc1 (relative stereo) [Example 10, (CIS) 3,3,5-TRIMETHYLCYCLOHEXYL 2-(4-PROPIONYLPHENOXY)-2-METHYLPROPIONATE] | – | – | – | – | – | – |
| 25.6 | C[C@@H]1C[C@H](OC(=O)C(C)(C)Oc2ccc(CCNC(=O)c3ccc(Cl)cc3)cc2)CC(C)(C)C1 (relative stereo) [Example 4, (CIS) 3,3,5-TRIMETHYLCYCLOHEXYL 2-(4-(2-(4-CHLOROBENZAMIDO)ETHYL)PHENOXY)-2-METHYLPROPIONATE] | 2.2 ± 0.3 | 2.5 ± 0.5 | 2.6 ± 0.3 | 4.8 ± 0.7 | – | – |
| – | C[C@H]1C[C@H](OC(=O)C(C)(C)CCCCOc2ccccc2)CC(C)(C)C1 (relative stereo) [Example 19, (TRANS) 3,3,5-TRIMETHYLCYCLOHEXYL 2-(4-PHENOXYBUTYL)- 2-METHYLPROPIONATE] | – | – | – | – | 5.2 | 70 |
| 45.9 | CC(=O)c1ccc(OC(C)(C)C(=O)O[C@H]2C[C@@H](C)CC(C)(C)C2)cc1 (relative stereo) [Example 16, (CIS) 3,3,5-TRIMETHYLCYCLOHEXYL 2-(4-ACETYLPHENOXY)-2-METHYLPROPIONATE] | – | – | – | – | – | – |
| 30.2 | Cc1cc(C)cc(OCCCCC(C)(C)C(=O)O[C@H]2C[C@@H](C)CC(C)(C)C2)c1 (relative stereo) [Example 22, (CIS) 3,3,5-TRIMETHYLCYCLOHEXYL 2-(4-(3,5-DIMETHYLPHENOXY)BUTYL)-2-METHYLPROPIONATE] | – | – | – | – | – | – |
| – | CC(=O)c1ccc(OC(C)(C)C(=O)O[C@H]2C[C@H](C)CC(C)(C)C2)c(Cl)c1 (relative stereo) [Example 11, (TRANS) 3,3,5-TRIMETHYLCYCLOHEXYL 2-(4-ACETYL-2-CHLOROPHENOXY)-2-METHYLPROPIONATE] | 1.0 ± 0.1 | 1.0 ± 0.1 | 1.8 ± 0.4 | 11 ± 5 | – | – |
| – | CC(=O)c1ccc(OC(C)(C)C(=O)O[C@@H]2C[C@@H](C)CC(C)(C)C2)cc1 (relative stereo) [Example 15, (TRAMS) 3,3,5-TRIMETHYLCYCLOHEXYL 2-(4-ACETYLPHENOXY)-2-METHYLPROPIONATE] | 1.7 ± 0.1 | 1.7 ± 1.2 | 2.8 ± 0.2 | 3.0 ± 0.3 | – | – |
| 39 | C[C@H]1C[C@H](OC(=O)C(C)(C)Oc2ccc(CCNC(=O)c3ccc(Cl)cc3)cc2)CC(C)(C)C1 (relative stereo) [Example 3, (TRANS) 3,3,5-TRIMETHYLCYCLOHEXYL 2-(4-(2-(4-CHLOROBENZAMIDO)ETHYL)PHENOXY)-2-METHYLPROPIONATE] | 1.6 ± 0.4 | 1.2 ± 0.4 | 1.2 ± 0.7 | 3.8 ± 0.5 | – | – |
| – | CCC(=O)c1ccc(OC(C)(C)C(=O)O[C@H]2C[C@H](C)CC(C)(C)C2)cc1 (relative stereo) [Example 9, (TRANS) 3,3,5-TRIMETHYLCYCLOHEXYL 2-(4-PROPIONYLPHENOXY)-2-METHYLPROPIONATE] | 2.0 ± 0.6 | 1.6 ± 0.3 | 2.5 ± 0.6 | 5.0 ± 0.2 | – | – |
| – | Cc1ccc(OCCCCC(C)(C)C(=O)O[C@H]2C[C@@H](C)CC(C)(C)C2)c(C)c1 (relative stereo) [Example 21, (CIS) 3,3,5-TRIMETHYLCYCLOHEXYL 2-(4-(2,4-DIMETHYLPHENOXY)BUTYL)-2-METHYLPROPIONATE] | – | – | – | – | 3.8 | 78 |
| – | CC(=O)c1cccc(OC(C)(C)C(=O)O[C@H]2C[C@@H](C)CC(C)(C)C2)c1 (relative stereo) [Example 14, (CIS) 3,3,5-TRIMETHYLCYCLOHEXYL 2-(3-ACETYLPHENOXY)-2-METHYLPROPIONATE] | 2.1 ± 0.1 | 6.0 ± 3.0 | 3.0 ± 0.3 | 4.8 ± 0.6 | – | – |
| – | C[C@H]1C[C@H](OC(=O)C(C)(C)Oc2ccc(C(=O)Cc3ccccc3)cc2)CC(C)(C)C1 (relative stereo) [Example 17, (TRANS) 3,3,5-TRIMETHYLCYCLOHEXYL 2-(4-PHENYLACETYLPHENOXY)-2-METHYLPROPIONATE] | – | – | – | – | 8.66 | 50 |
| 40.5 | C[C@@H]1C[C@H](OC(=O)C(C)(C)CCCCOc2ccccc2)CC(C)(C)C1 (relative stereo) [Example 20, (CIS) 3,3,5-TRIMETHYLCYCLOHEXYL 2-(4-PHENOXYBUTYL)-2-METHYLPROPIONATE] | – | – | – | – | – | – |
